# Test results: patent publication US20250019445A1, “P-SELECTIN INHIBITION FOR TREATMENT OF CANCER” (Ramot at Tel-Aviv University Ltd., priority 2022, published 2025)
# What was measured:
# [1] = tested on: A549 spheroids; assay: Lung cancer spheroid growth and invasion; format: cell-based, human
# [2] = tested on: Human MDA-BM-231 3D spheroids; assay: Breast cancer 3D spheroid invasion; format: cell-based; settings: co-cultured with brain microenvironment cells; FIG. 7B
# [3] = tested on: P-selectin-, E-selectin-, and L-selectin-dependent adhesion; settings: in humans in vitro; cited from earlier work
# [4] = different animal models; wording wraps from r29 ("anti-") to r30; cited from earlier work
# [5] = patients, administered systemically; cited from earlier work
molecule,measurement,setting,value
"COc1ccc(C2CC(c3c(O)cc(C)oc3=O)=NCCS2)c(OC)c1 (stereo not shown) [SELPi, 3-[7-(2,4-Dimethoxyphenyl)-2,3,6,7-tetrahydro-1,4-thiazepin-5-yl]-4-hydroxy-6-methyl-2H-pyran-2-one]",spheroid growth and invasion in Matrigel,[1]; FIG. 8D,"reduced A549 spheroid growth and invasion in Matrigel, in a dose-dependent manner"
same,spheroid growth,"[1]; in the presence of human microglia, FIG. 8C",inhibits A549 spheroid growth
same,spheroid invasion,[2],reduced invasion
O=C(O)Cc1cccc(-c2cc(CCCCCCc3ccc(O[C@H]4O[C@H](CO)[C@@H](O)[C@H](O)[C@@H]4O)c(-c4cccc(CC(=O)O)c4)c3)ccc2O[C@H]2O[C@H](CO)[C@@H](O)[C@H](O)[C@@H]2O)c1 [Bimosiamose],inhibition of selectin-dependent adhesion,[3],"been shown to inhibit P-selectin-, E-selectin-, and L-selectin-"
same,anti-inflammatory effects,[4],inflammatory effects in different animal models.
inclacumab: monoclonal antibody directed towards P-selectin,tolerability,[5],well tolerated
"crizanlizumab: Humanized monoclonal anti-P-selectin antibody. (antibody, chains of the INN, looked up, V domains shown) VH: QVQLVQSGAEVKKPGASVKVSCKVSGYTFTSYDINWVRQAPGKGLEWMGWIYPGDGSIKYNEKFKGRVTMTVDKSTDTAYMELSSLRSEDTAVYYCARRGEYGNYEGAMDYWGQGTLVTVSS VL: DIQMTQSPSSLSASVGDRVTITCKASQSVDYDGHSYMNWYQQKPGKAPKLLIYAASNLESGVPSRFSGSGSGTDFTLTISSLQPEDFATYYCQQSDENPLTFGGGTKVEIK",tolerability,[5],well tolerated
